This note sets out measurements from the supplement of paper PMC4862054.

What all share (settings): incubation time: 72 h
Experiment [1] concerns MDA-MB-231. Briefly: drug sensitivity score (DSS), CellTiter-Glo (DSS (AUC-based score)); higher = stronger drug effect (viability inhibition or cytotoxicity); extreme values may be limits of the assay. In short, it runs like this:
(§1)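 Each compound occupied 5 concentrations in 10-fold steps over its own 10,000-fold range in 384-well plates, into which breast cancer cell lines were seeded as 20 µl suspension. Following 72 h of incubation, CellTox Green fluorescence (485/520 nm) was measured, and CellTiter-Glo luminescence was measured after 10 min at room temperature. Plates were individually normalised to 0.1 % DMSO and a positive kill control. From the area under the fitted dose-response curve, a drug sensitivity score was calculated.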
(In general: Cellular ATP, detected with luciferase, serves as a proxy for viable cell number.)

The subject of a further experiment is MCF-10A. Described as above. Summed up:
as §1

Experiment [2] concerns HCC1143. Described as above. Summed up:
as §1

For experiment [3], the system named is HDQ-P1. The description is as above. In short, it runs like this:
as §1

In experiment [4] the test system is HCC1937. The description is as above. In short, it runs like this: as §1
In experiment [5] the test system is BT-474. The description is as above. In short, it runs like this:
as §1

The next experiment deals with SK-BR-3. Briefly: normalised viability (% of control), CellTiter-Blue; higher = more viable cells (about 100 = DMSO control). In short, it runs like this:
(§2)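 Plates were quality-checked by Z'-factor and normalised to vehicle (100) and a positive kill control (0). The underlying assay incubated breast cancer cell lines for 72 h on 384-well plates with compound, then added 2.5 µl CellTiter-Blue for 2 h at 37 °C and read at 560/590 nm. The value is normalised viability at a single listed concentration of the series.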
For orientation: Alamar Blue is a resazurin reagent that responds to reducing activity.

A further experiment relates to BT-549. Described as above. In short, it runs like this: as §2
Experiment [6] has as its system MDA-MB-231. The experiment is described as above. In short, it runs like this: as §2
The subject of a further experiment is CAL-120. The description is as above. In short, it runs like this:
as §2

The test system of a further experiment is Hs578T. The experiment is described as above. Summed up: as §2
Another experiment concerns CAL-148. Described as above. Summed up:
as §2

Another experiment relates to MDA-MB-436. The description is as above. Summed up:
as §2

For experiment [7], the system named is HCC1143. The description is as above. In short, it runs like this:
as §2

Experiment [8] deals with HDQ-P1. Described as above. Summed up: as §2
A further experiment relates to CAL-51. Described as above. Summed up: as §2
Experiment [9] concerns HCC1937. Described as above. Summed up:
as §2

Another experiment deals with MFM-223. Described as above. In short, it runs like this:
as §2

The next experiment deals with DU-4475. Described as above. In short, it runs like this:
as §2

A further experiment relates to MDA-MB-453. Described as above. In short, it runs like this:
as §2

In experiment [10] the test system is BT-474. The experiment is described as above. In short, it runs like this:
as §2

A further experiment has as its system CAL-85-1. The experiment is described as above. Summed up: as §2
In another experiment the test system is HCC1599. The experiment is described as above. In short, it runs like this:
as §2

For a further experiment, the system named is MDA-MB-468. The experiment is described as above. Summed up:
as §2

As to `CC(C)(C)Cn1c(N)nc2ccc(-c3[nH]c(C(C)(C)C)nc3-c3ccc(F)cc3)nc21`, the drug sensitivity score in the experiment on MDA-MB-231 [1] came out at 0; in the experiment on MCF-10A it was 3.14; in the experiment with HCC1143 [2], 0; with HDQ-P1 [3] it was 0; in the experiment with HCC1937 [4], 0; in the experiment on BT-474 [5] it was 0.606.

With `Cn1cc(C[C@@H](N)C(=O)O)c2ccccc21` [1-methyl-D-tryptophan], the drug sensitivity score with MDA-MB-231 [1], in the experiment with MCF-10A, in the experiment with HCC1143 [2], in the experiment with HDQ-P1 [3], in the experiment with HCC1937 [4] and in the experiment on BT-474 [5] was 0 each time.

In the case of `CC[C@H](CC#N)OC(=O)N[C@@H](C)c1cccc(NC(=O)Nc2ccc(-c3cnco3)c(OC)c2)c1` [AVN944], the drug sensitivity score with MDA-MB-231 [1] was 9.58; with MCF-10A it was 8.88; in the experiment on HCC1143 [2], 11.7; in the experiment with HDQ-P1 [3], 11.7; in the experiment on HCC1937 [4], 9.9; with BT-474 [5], 8.56.

As for `Cc1c(N)nc([C@H](CC(N)=O)NC[C@H](N)C(N)=O)nc1C(=O)N[C@H](C(=O)N[C@H](C)[C@@H](O)[C@H](C)C(=O)N[C@H](C(=O)NCCc1nc(-c2nc(C(=O)NCCC[S+](C)C)cs2)cs1)[C@@H](C)O)[C@@H](OC1OC(CO)C(O)C(O)C1OC1OC(CO)C(O)C(OC(N)=O)C1O)c1cnc[nH]1` (stereo partly drawn) [Bleomycin], the normalised viability in the experiment on SK-BR-3 (10 nM) is 89.6%; in the experiment on SK-BR-3 (1000 nM), 99.1%; in the experiment on SK-BR-3 (10000 nM), 89.5%; with BT-549 (10 nM), 87.5%; with BT-549 (1000 nM), 57.1%; with BT-549 (10000 nM), 62.4%. In addition, the normalised viability in the experiment on MDA-MB-231 [6] (10 nM) is 88.7%; with MDA-MB-231 [6] (1000 nM), 70%; with MDA-MB-231 [6] (10000 nM), 60.3%; in the experiment with CAL-120 (10 nM) it was 94.4%; with CAL-120 (1000 nM), 78.5%; in the experiment on CAL-120 (10000 nM) it was 67.7%. The normalised viability in the experiment with Hs578T (10 nM) is 90.3%; with Hs578T (1000 nM), 64.3%; in the experiment with Hs578T (10000 nM), 50%; in the experiment on CAL-148 (3 nM) it was 88%; in the experiment on CAL-148 (30 nM), 82.5%; in the experiment on CAL-148 (100 nM), 87%. Further, the normalised viability in the experiment on MDA-MB-436 (10 nM) is 92.3%; in the experiment with MDA-MB-436 (1000 nM) it was 79%; in the experiment on MDA-MB-436 (10000 nM), 44.7%; with HCC1143 [7] (10 nM), 74.6%; in the experiment with HCC1143 [7] (1000 nM) it was 64.2%; in the experiment on HCC1143 [7] (10000 nM), 49.4%. Besides, the normalised viability in the experiment on HDQ-P1 [8] (3 nM) was found to be 80.9%; with HDQ-P1 [8] (30 nM), 88.5%; in the experiment on HDQ-P1 [8] (100 nM) it was 27.8%; in the experiment with CAL-51 (3 nM), 97.6%; in the experiment with CAL-51 (30 nM), 96%; in the experiment with CAL-51 (100 nM) it was 96.3%. Moreover, the normalised viability in the experiment on HCC1937 [9] (10 nM) was 92.2%; in the experiment with HCC1937 [9] (1000 nM), 54.7%; in the experiment on HCC1937 [9] (10000 nM), 28.2%; with MFM-223 (10 nM) it was 106%; in the experiment on MFM-223 (1000 nM), 107%; in the experiment on MFM-223 (10000 nM), 100%. Also, the normalised viability came to 117% in the experiment with DU-4475 (3 nM); 84.4% in the experiment with DU-4475 (30 nM); 116% in the experiment with DU-4475 (100 nM); 103% in the experiment on MDA-MB-453 (3 nM); 106% in the experiment on MDA-MB-453 (30 nM); 100% in the experiment with MDA-MB-453 (100 nM). Further, the normalised viability in the experiment on BT-474 [10] (10 nM) worked out at 102%; in the experiment with BT-474 [10] (1000 nM), 97.9%; in the experiment with BT-474 [10] (10000 nM) it was 98%; in the experiment on CAL-85-1 (3 nM), 101%; in the experiment on CAL-85-1 (30 nM), 94.9%; in the experiment with CAL-85-1 (100 nM), 96.6%. The normalised viability came out at 134% in the experiment on HCC1599 (10 nM); 112% in the experiment on HCC1599 (1000 nM); 118% in the experiment on HCC1599 (10000 nM); 94.6% in the experiment with MDA-MB-468 (10 nM); 86.6% in the experiment with MDA-MB-468 (1000 nM); 72.7% in the experiment with MDA-MB-468 (10000 nM). Moreover, the drug sensitivity score with MDA-MB-231 [1] turned out to be 0; in the experiment with MCF-10A it was 0; in the experiment on HCC1143 [2], 4.08; with HDQ-P1 [3] it was 0; in the experiment with HCC1937 [4], 2.76; in the experiment with BT-474 [5], 0.
